Measured values published in patent US20050261365A1, “Transthyretin stabilization” (The Scripps Research Institute, priority 2004, published 2005).
“Also recorded” adds a separate entry of the source.

Assays:
[1] = precipitation of small molecules under acid-mediated amyloidogenic conditions in the absence of TTR; type: physicochemical; settings: 3.6 μM, pH 4.4, 37° C., 72 h
Experimental: (§1) TTR amyloid inhibition efficacy was probed using a stagnant fibril formation assay described previously, wherein partial denaturation was triggered by acidification (pH 4.4, 37° C.) (Colon, W.; Kelly, J. W. Biochemistry 1992, 31, 8654-8660). Briefly, a test compound (7.2 or 3.6 μM) is incubated with TTR (3.6 μM) for 30 min in pH 7 buffer. Amyloidogenesis is then initiated by lowering to pH 4.4, where maximal fibril formation is observed with WT-TTR after 72 h (37° C.). […] From experience we know that excellent inhibitors allow <10% fibril formation at a small molecule concentration of 7.2 μM and <40% fibril formation at a concentration equal to that of WT-TTR (3.6 μM) (Hammarstrom, P.; et al. Science 2003, 299, 713-716; Klabunde, T.; et al. Nature Struct. Biol. 2000, 7, 312-321; Razavi, H.; et al. Angew Chem 2003, 42, 2758-2761; Miroy, G. J.; et al. Proc. Natl. Acad. Sci. USA 1996, 93, 15051-15056; Peterson, S. A.; et al. Proc. Natl. Acad. Sci. USA 1998, 95, 12956-12960; Baures, P. W.; et al. Bioorg. Med. Chem. 1998, 6, 1389-1401; Baures, P. W.; et al. Bioorg. Med. Chem. 1999, 7, 1339-1347; Petrassi, H. M.; et al. J. Am. Chem. Soc. 2000, 122, 2178-2192; McCammon, M. G.; et al. Structure 2002, 10, 851-863; Oza, V. B.; et al. J. Med. Chem. 2002, 45, 321-332; Saccheftini, J. C.; et al. Nature Rev. Drug Disc. 2002, 1, 267-275; Green, N. S.; et al. J. Am. Chem. Soc. 2003, 125, 13404-13414; Adamski-Werner, S. L.; et al. J. Med. Chem. 2004, 47, 355-374; Miller Sean, R.; et al. Lab. Inv. 2004, 84, 545-552). […] Therefore, when both the ligand and TTR are at equal concentrations, a population of TTR•I, TTR•I2 and unliganded TTR is observed, dictated by the dissociation constants. It is now established by other studies that inhibitor occupancy of only one of the two TTR binding sites is sufficient to stabilize the entire tetramer against amyloidogenesis (Wiseman, R. L.; et al. J. Am. Chem. Soc. 2005, in press). This is further supported by the observation herein that twenty-six of these dibenzofurans are excellent TTR amyloidogenesis inhibitors (<40% fibril formation) at a concentration equal to that of TTR (3.6 μM each, FIG. 3).

WT-TTR [2] = target: T1, WT-TTR (Homo sapiens, UniProt P02766); test: time course analysis of WT-TTR fibril formation inhibition; type: biochemical; settings: inhibitor 7.2 and 3.6 μM, WT-TTR 3.6 μM, pH 4.4, turbidity at 500 nm
T1 construct: made in house
Experimental: Time course analysis of WT-TTR fibril formation inhibition by compounds 25, 47, and 64. Compounds 25, 47, and 64 were dissolved in DMSO to provide 7.2 mM primary stock solutions (10× stocks), from which 5- and 10-fold DMSO dilutions yielded 1.44 mM (2×) and 0.72 mM (1×) secondary stock solutions, respectively. 495 μL of 0.4 mg/mL (7.2 μM) WT-TTR solution (10 mM sodium phosphate, 100 mM KCl, and 1 mM EDTA, pH 7.2), and 5 μL of either the 1.44 or 0.72 mM inhibitor secondary stock solutions were added to disposable UV cuvettes, vortexed briefly, then incubated for 30 min at 25° C. The pH was then adjusted to 4.4 with addition of 500 μL of acidic buffer (100 mM acetate, 100 mM KCl, 1 mM EDTA, pH 4.2), and the final 1 mL solutions were vortexed again and incubated in the dark at 37° C. without agitation. At 0, 4, 8, 12, 25, 49, 74, 100, 122, 145, and 169 h time points after acidification, the solutions were vortexed and the turbidity at 500 nm was measured. Control samples containing 5 μL of pure DMSO were prepared and analyzed as above for comparison. Small molecule and TTR control samples were prepared in groups of 10 to prevent disturbance of the cuvettes during incubation. Samples were discarded after their turbidities were measured.
FIG. 10 is a plot of the timecourse analysis of WT-TTR (3.6 μM) fibril formation mediated by partial acid denaturation in the absence (▴) and presence of 7.2 μM (⋄) and 3.6 μM (◯) inhibitors 25, 47, and 64, as measured by turbidity at 500 nm (see color scheme within Figure to differentiate inhibitors). It is hard to discern which compound is most efficacious in the black and white plot.

WT-TTR tetramer = target: T2, WT-TTR tetramer (Homo sapiens, UniProt P02766); test: time course analysis of WT-TTR tetramer dissociation by linked monomer unfolding in urea; type: biochemical; settings: for rate of TTR tetramer dissociation in 6M urea: inhibitor 7.2 and 3.6 μM, TTR 3.6 μM, far-UV CD
T2 construct: made in house
Description: The ability of these inhibitors to impose kinetic stability on tetrameric TTR is best evaluated by assessing the rate of TTR tetramer dissociation (Hammarstrom, P.; et al. Science 2003, 299, 713-716; Hammarstrom, P.; et al. Proc. Natl. Acad. Sci. USA 2002, 99, 16427-16432). Under acidic conditions tetramer dissociation leads to amyloidogenesis, whereas in the presence of chaotropes (6M urea), tetramer dissociation leads to monomer unfolding. The influence of inhibitors 25, 47 and 64, representing the three structural classes of dibenzofuran-based inhibitors, on the rates of tetramer dissociation under acid- and urea-mediated denaturing conditions was probed. […] The rate of TTR tetramer dissociation in 6M urea is easily monitored by linking the slow quaternary structural changes to rapid tertiary structural changes that are easily monitored by spectroscopic methods (Hammarstrom, P.; et al. Proc. Natl. Acad. Sci. USA 2002, 99, 16427-16432).
Time course analysis of WT-TTR tetramer dissociation inhibition by compounds 25, 47, and 64 evaluated by linked-monomer unfolding in urea. Compounds 25, 47, and 64 were dissolved in DMSO to provide 10 mM primary stock solutions, from which 10-fold EtOH dilutions yielded 1 mM secondary stock solutions. 200 μL of 1.0 mg/mL (18 μM) WT-TTR solution (50 mM sodium phosphate, 100 mM KCl, and 1 mM EDTA, pH 7.2), and either 7.2 or 3.6 μL (2× and 1×, respectively) of 1 mM inhibitor secondary stock solutions were added to 2 mL eppendorf tubes, vortexed briefly, and incubated for 15 min at 25° C. 100 μL of the TTR•inhibitor solutions were added to 900 μL of urea buffer (6.67 M urea, 50 mM sodium phosphate, 100 mM KCl, 1 mM EDTA, pH 7.2), and the final 1 mL solutions were vortexed again and incubated in the dark at 25° C. without agitation. At 0, 4, 11, 24, 49, 73, 97, 122, 146, and 170 h time points after mixing with urea, the circular dichroism spectra were measured between […], with scanning every 0.5 nm and averaging for 5 s. […] Control samples containing 7.2 μL of 10% DMSO in EtOH were prepared and analyzed as above for comparison. […] TTR tetramer dissociation is linked to the rapid (˜500,000× faster) monomer denaturation as measured through this β-sheet loss (Hammarstrom, P.; et al. Proc. Natl. Acad. Sci. USA 2002, 99, 16427-16432).
FIG. 11 is a plot of the timecourse analysis of WT-TTR (3.6 μM) tetramer dissociation (6.0 M urea) in the absence (▴) and presence of 7.2 μM (⋄) and 3.6 μM (◯) concentrations of inhibitors 25, 47, and 64 (see color scheme within Figure to differentiate inhibitors). Slow tetramer dissociation is not detectable by far-UV CD spectroscopy, but this process is linked to rapid (˜500,000× faster) monomer denaturation as monitored by loss of β-sheet content easily followed by circular dichroism spectroscopy. […]

[3] = target: T3, TTR in human blood plasma (Homo sapiens, UniProt P02766); test: plasma TTR binding selectivity, antibody capture method; settings: inhibitor 10.8 μM, 24 h, 37° C.
T3 construct: from tissue; host or cells: human blood plasma
Experimental: Inhibitor binding selectivity to TTR in human blood plasma was assessed using a previously established antibody capture method (Purkey, H. E.; et al. Proc. Natl. Acad. Sci. USA 2001, 98, 5566-5571). In this evaluation, inhibitors (10.8 μM, ˜2-3× the natural concentration of TTR) are incubated in human blood plasma for 24 h at 37° C. Quenched sepharose resin is then added to the plasma to remove any small molecules that would bind to the resin as opposed to TTR. TTR and any TTR-bound small molecule is then immunocaptured using a polyclonal TTR antibody covalently attached to sepharose resin. After washing the resin (5×10 min washes), the antibody-TTR complex is dissociated at high pH and analyzed by RP-HPLC. The relative stoichiometry between TTR and inhibitor is then calculated from their HPLC peak areas using standard curves.
(§2) The procedures used for bacterial expression of TTR (Lai, Z.; et al. Biochemistry 1996, 35, 6470-6482), the stagnant fibril formation assay (Colon, W.; Kelly, J. W. Biochemistry 1992, 31, 8654-8660; Lai, Z.; et al. Biochemistry 1996, 35, 6470-6482), the blood plasma binding selectivity assay (Purkey, H. E.; et al. Proc. Natl. Acad. Sci. USA 2001, 98, 5566-5571), and analytical ultracentrifugation (Lashuel, H. A.; et al. Biochemistry 1998, 37, 17851-17864) have all been described in detail previously.

WT-TTR [4] = target: T1, WT-TTR; test: stagnant acid-mediated fibril formation assay (turbidity); type: biochemical; settings: WT-TTR 3.6 μM; for inhibitor potency against fibril formation: inhibitor 3.6 μM, pH 4.4, 72 h
Experimental: as §1, §2

O=C(O)c1cccc2c1oc1c(C(=O)O)ccc(Oc3cccc(C(F)(F)F)c3)c12 [Compound 45]
precipitation in the absence of TTR [1]: no measurable precipitation

O=C(O)c1cccc2c1oc1c(C(=O)O)ccc(Nc3ccccc3C(F)(F)F)c12 [Compound 25]
rate of TTR amyloidogenesis mediated by partial acidification relative to control (WT-TTR [2]): dramatically slowed in a dose-dependent fashion | order of effect on tetramer dissociation at the end of the time course (WT-TTR tetramer; after 169 hours, 6.0 M urea, FIG. 11): most effective in dissociating tetramers | rate of TTR tetramer dissociation in 6M urea (WT-TTR tetramer): markedly slowed in a dose-dependent fashion | precipitation in the absence of TTR [1]: no measurable precipitation

O=C(O)c1cccc2c1oc1c(C(=O)O)ccc(-c3cc(F)cc(F)c3)c12 [Compound 62]
precipitation in the absence of TTR [1]: no measurable precipitation

O=C(O)c1cccc2c1oc1c(C(=O)O)ccc(Nc3cc(C(F)(F)F)cc(C(F)(F)F)c3)c12 [Compound 31]
binding selectivity to TTR in human blood plasma [3]: all but two (31 and 35) exhibit dramatically increased binding selectivity

O=C(O)c1cccc2c1oc1c(C(=O)O)ccc(Nc3cc(Cl)cc(Cl)c3)c12 [Compound 30]
precipitation in the absence of TTR [1]: no measurable precipitation

O=C(O)c1cccc2c1oc1c(C(=O)O)ccc(-c3cc(C(F)(F)F)cc(C(F)(F)F)c3)c12 [Compound 64]
rate of TTR amyloidogenesis mediated by partial acidification relative to control (WT-TTR [2]): dramatically slowed in a dose-dependent fashion | rate of TTR tetramer dissociation in 6M urea (WT-TTR tetramer): markedly slowed in a dose-dependent fashion

O=C(O)c1cc(Nc2ccc(C(=O)O)c3oc4c(C(=O)O)cccc4c23)cc(C(=O)O)c1 [Compound 34]
inhibitor potency against fibril formation (WT-TTR [4]): all the inhibitors (except 34) display increased potency | inhibition of WT-TTR fibril formation (WT-TTR [4]; inhibitor 7.2 μM, pH 4.4, 37° C., 72 h): not as effective; also recorded: all but one (34) completely inhibit fibril formation

O=C(O)c1cccc2c1oc1c(C(=O)O)ccc(Nc3cccc(C(F)(F)F)c3)c12 [Compound 26]
precipitation in the absence of TTR [1]: no measurable precipitation

O=C(O)c1cccc2c1oc1c(C(=O)O)ccc(-c3ccccc3F)c12 [Compound 67]
inhibitor potency against fibril formation (WT-TTR [4]): most potent

O=C(O)c1ccc(Nc2ccc(C(=O)O)c3oc4c(C(=O)O)cccc4c23)cc1 [Compound 35]
binding selectivity to TTR in human blood plasma [3]: all but two (31 and 35) exhibit dramatically increased binding selectivity

O=C(O)c1cccc(Nc2ccc(C(=O)O)c3oc4c(C(=O)O)cccc4c23)c1 [Compound 33]
inhibitor potency against fibril formation (WT-TTR [4]): amongst the most potent | binding selectivity to TTR in human blood plasma [3]: modest

O=C(O)c1cccc(-c2ccc(C(=O)O)c3oc4c(C(=O)O)cccc4c23)c1 [Compound 69]
inhibitor potency against fibril formation (WT-TTR [4]): amongst the most potent | binding selectivity to TTR in human blood plasma [3]: modest

O=C(O)c1cccc2c1oc1c(C(=O)O)ccc(-c3cc(Cl)cc(Cl)c3)c12 [Compound 63]
inhibitor potency against fibril formation (WT-TTR [4]): most potent

O=C(O)c1cccc2c1oc1c(C(=O)O)ccc(Nc3ccccc3F)c12 [Compound 36]
inhibitor potency against fibril formation (WT-TTR [4]): most potent
